Data on four compounds can be found in publication PMC11648915, “Identification and development of TRPM4 antagonists to counteract neuronal excitotoxicity” (iScience, 2024).

Structures are written as SMILES. Read-outs that look alike come from different tables or passages of the source.

The half-life is how long it takes for the measured level to halve. The IC50 is the midpoint of a concentration-inhibition curve. A higher IC50 goes with weaker potency.

Data set [1] in a line: In vivo pharmacokinetics after single i.p. or i.v. dose. The note with it: female, C57BL/6J, mouse. How it is done:
Next, to assess in vivo availability of the Series 1–3 compounds, we evaluated drug metabolism and pharmacokinetics (DMPK). We measured compound concentrations in plasma, heart, and brain at several time points after intraperitoneal (i.p.) or intravenous (i.v.) single-dose injections.
Half-life and bioavailability were calculated by noncompartmental analysis using the R package PK[84] (v1.3-6).

The target of a further data set is T1, mouse TRPM4 (Mus musculus, UniProt Q7TN37).
T1 construct: Human TRPM4 (UniProtKB: Q8TD43-1) and mouse Trpm4 (UniProtKB: Q7TN37-1) were amplified via PCR; eGFP (C); expressed in transfected cells
The data set can be described thus: Inside-out patch clamp, mouse TRPM4. The format is cell-based. Particulars: inside-out patch clamp configuration. (In general: Patch clamp records ionic current or voltage across a cell membrane.)

Data set [2] concerns hsTRPM4 L907A, S924A and L907A/S924A mutants. The data set can be described thus: Whole-cell patch clamp of wild-type and binding-site mutant hsTRPM4. The note with it: whole-cell voltage clamp, HEK293T.
Source text: Initially, we assessed the basic properties of the hsTRPM4 mutants using whole-cell patch clamp electrophysiology.
Another data set deals with human TRPM4 (Homo sapiens, UniProt Q8TD43). The data set can be described thus: Inside-out patch clamp, human TRPM4. Particulars: inside-out patch clamp configuration. On the set-up: Human TRPM4 (UniProtKB: Q8TD43-1) and mouse Trpm4 (UniProtKB: Q7TN37-1) were amplified via PCR; expressed in transfected cells. The format is cell-based. How it is done: Patch clamp recordings were conducted using an EPC10 patch clamp amplifier and Patchmaster software (HEKA, Germany). An Ag/AgCl wire served as the reference electrode in all experiments. […] Liquid junction potential was compensated before achieving gigaseal formation. All experiments were conducted at room temperature. Whole-cell currents were recorded in transiently transfected HEK293 cells expressing either wildtype human TRPM4, TRPM4-L907A, or TRPM4-S924A. Recordings involved a 400 ms increasing voltage ramp from –100 mV to +100 mV, initiated from a holding potential of 0 mV. The interval between each sweep was 2 seconds, with data sampled at 5 kHz. […] To identify TRPM4 currents, extracellular Na^+ was replaced with equimolar NMDG^+. […] Similar to whole-cell recordings, a 400 ms increasing voltage ramp from –100 mV to +100 mV was applied from a holding potential of 0 mV. The interval between sweeps was 2 seconds, and data were sampled at 5 kHz. […] TRPM4 currents were activated by 500 μM CaCl2 and deactivated by 10 mM EGTA, both added to the intracellular solution. Ca^2+ activation curves were fitted using a likelihood maximization algorithm to estimate the parameters for the sigmoidal fitting curves y-maximum, slope and midpoint as part of the R package sicegar (V0.2.4).

The target in another data set is T2, CYP 2C9 (Homo sapiens, UniProt P11712).
T2 construct: purchased BD Gentest
Nature of the data set: CYP inhibition assay 2C9. The format is in vitro ADME. The procedure:
(§1) The half-maximal inhibitory concentration (IC50) for cytochrome P450 (CYP) enzymes was determined using an in vitro enzyme inhibition assay. Recombinant CYP enzymes or human liver microsomes from BD Gentest, in 0.1 M phosphate buffer pH 7.4, containing native CYP enzymes were incubated with the test compound at various concentrations (1, 3, 10 and 30 μM) and containing 0.5% DMSO and 0.1% BSA final concentrations. 1 mM of NADPH cofactor was added and the reaction was started by a rapid increase of temperature until 37°C.

A further data set addresses T3, CYP 2C19 (Homo sapiens, UniProt P33261).
T3 construct: purchased BD Gentest
Nature of the data set: CYP inhibition assay 2C19. Type of data set: in vitro ADME. The procedure: as §1

Data set [3] can be described thus: Caco-2 permeability assay. The format is in vitro ADME. The note with it: human, direction not given. The procedure:
Caco-2 permeability was evaluated using a cell-based assay with Caco-2 cells cultured on permeable membrane inserts. The test compound was added at 10 μM to the apical (donor) compartment, and samples were collected from the basolateral (receiver) compartment at 120 min. The test compound was also added at 10 μM to the basolateral (donor) compartment, and samples were collected from the apical (receiver) compartment at 120 min. The amount of the compound in both compartments was measured using mass spectrometry (LC-MS/MS). The permeability coefficient (Papp, nm/s) apical to basolateral and basolateral to apical, and an efflux ratio were calculated.
On the technique in general: Caco-2 cells form a polarised layer with tight junctions and transporters.

T1 sequence (Q7TN37 whole entry): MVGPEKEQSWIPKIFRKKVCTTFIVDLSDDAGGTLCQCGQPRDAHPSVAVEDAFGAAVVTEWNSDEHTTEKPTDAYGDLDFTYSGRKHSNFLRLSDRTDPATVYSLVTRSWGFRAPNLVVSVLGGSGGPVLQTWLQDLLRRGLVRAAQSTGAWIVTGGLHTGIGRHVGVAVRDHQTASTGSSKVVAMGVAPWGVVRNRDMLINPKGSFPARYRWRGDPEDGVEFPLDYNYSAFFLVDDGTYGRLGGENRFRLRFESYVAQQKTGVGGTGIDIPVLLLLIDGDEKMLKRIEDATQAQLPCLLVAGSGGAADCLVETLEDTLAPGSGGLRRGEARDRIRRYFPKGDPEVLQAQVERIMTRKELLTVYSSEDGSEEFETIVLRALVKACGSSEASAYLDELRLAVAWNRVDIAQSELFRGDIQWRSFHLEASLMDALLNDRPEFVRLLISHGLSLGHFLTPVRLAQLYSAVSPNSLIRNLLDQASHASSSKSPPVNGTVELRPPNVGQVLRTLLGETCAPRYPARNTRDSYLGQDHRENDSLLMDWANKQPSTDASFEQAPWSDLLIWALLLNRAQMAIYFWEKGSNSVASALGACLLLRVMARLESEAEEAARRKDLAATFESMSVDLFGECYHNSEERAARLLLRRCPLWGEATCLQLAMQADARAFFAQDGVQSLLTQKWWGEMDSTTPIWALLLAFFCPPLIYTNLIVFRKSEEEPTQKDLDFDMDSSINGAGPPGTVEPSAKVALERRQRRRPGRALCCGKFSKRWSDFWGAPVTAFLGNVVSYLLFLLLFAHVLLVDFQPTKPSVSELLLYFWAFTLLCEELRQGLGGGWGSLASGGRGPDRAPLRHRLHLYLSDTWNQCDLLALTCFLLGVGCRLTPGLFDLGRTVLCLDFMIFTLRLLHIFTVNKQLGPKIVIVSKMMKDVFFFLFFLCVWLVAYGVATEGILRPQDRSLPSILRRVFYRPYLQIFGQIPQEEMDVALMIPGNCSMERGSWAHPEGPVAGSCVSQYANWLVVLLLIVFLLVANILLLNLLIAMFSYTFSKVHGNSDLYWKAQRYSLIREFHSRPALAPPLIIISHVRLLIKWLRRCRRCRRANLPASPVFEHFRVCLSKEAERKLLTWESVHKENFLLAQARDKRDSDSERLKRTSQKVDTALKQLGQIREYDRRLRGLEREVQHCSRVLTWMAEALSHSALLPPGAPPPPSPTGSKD
Chain of human TRPM4 (Q8TD43 whole entry): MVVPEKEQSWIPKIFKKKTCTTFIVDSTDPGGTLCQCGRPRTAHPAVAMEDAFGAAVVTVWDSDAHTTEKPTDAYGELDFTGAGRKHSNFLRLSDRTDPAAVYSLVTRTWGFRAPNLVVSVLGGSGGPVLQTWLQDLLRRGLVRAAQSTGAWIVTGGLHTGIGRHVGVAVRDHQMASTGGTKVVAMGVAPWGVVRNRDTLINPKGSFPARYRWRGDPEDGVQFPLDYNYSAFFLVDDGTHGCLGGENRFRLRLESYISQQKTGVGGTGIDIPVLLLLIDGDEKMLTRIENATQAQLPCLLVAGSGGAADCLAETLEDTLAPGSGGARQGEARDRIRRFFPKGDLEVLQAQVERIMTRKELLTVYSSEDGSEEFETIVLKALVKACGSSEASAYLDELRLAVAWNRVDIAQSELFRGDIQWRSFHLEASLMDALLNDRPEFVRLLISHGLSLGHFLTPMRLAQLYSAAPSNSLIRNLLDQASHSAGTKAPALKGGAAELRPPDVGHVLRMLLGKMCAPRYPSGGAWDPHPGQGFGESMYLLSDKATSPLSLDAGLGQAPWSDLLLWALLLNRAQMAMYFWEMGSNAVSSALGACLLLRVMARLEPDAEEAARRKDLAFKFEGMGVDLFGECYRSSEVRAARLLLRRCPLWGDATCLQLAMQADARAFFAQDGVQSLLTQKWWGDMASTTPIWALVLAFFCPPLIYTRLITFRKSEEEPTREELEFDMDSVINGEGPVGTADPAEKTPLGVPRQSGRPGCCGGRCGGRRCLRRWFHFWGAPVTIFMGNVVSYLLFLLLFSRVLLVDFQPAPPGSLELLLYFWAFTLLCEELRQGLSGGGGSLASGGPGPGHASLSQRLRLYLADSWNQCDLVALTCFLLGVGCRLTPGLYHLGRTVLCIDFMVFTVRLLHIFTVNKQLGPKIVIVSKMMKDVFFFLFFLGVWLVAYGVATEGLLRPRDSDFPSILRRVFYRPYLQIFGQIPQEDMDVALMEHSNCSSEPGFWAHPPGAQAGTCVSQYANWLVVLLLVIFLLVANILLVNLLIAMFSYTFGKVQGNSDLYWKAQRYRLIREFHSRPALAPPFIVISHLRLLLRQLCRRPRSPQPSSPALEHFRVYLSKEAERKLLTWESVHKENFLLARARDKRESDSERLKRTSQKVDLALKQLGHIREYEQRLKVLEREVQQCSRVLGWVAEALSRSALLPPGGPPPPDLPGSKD
T2 sequence (P11712 whole entry): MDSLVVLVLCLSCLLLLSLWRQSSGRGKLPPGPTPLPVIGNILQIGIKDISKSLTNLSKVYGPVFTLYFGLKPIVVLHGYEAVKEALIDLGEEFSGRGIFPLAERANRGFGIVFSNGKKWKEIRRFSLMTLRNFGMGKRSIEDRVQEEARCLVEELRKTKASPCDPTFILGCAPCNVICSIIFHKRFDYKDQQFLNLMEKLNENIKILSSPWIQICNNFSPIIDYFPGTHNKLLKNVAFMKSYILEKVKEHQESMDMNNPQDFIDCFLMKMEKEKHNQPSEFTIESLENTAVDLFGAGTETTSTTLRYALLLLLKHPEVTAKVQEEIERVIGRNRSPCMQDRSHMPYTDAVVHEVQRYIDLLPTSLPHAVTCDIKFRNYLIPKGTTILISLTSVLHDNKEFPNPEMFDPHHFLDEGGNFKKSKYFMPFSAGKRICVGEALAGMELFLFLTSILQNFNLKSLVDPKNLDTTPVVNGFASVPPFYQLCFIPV
T3 sequence (P33261 whole entry): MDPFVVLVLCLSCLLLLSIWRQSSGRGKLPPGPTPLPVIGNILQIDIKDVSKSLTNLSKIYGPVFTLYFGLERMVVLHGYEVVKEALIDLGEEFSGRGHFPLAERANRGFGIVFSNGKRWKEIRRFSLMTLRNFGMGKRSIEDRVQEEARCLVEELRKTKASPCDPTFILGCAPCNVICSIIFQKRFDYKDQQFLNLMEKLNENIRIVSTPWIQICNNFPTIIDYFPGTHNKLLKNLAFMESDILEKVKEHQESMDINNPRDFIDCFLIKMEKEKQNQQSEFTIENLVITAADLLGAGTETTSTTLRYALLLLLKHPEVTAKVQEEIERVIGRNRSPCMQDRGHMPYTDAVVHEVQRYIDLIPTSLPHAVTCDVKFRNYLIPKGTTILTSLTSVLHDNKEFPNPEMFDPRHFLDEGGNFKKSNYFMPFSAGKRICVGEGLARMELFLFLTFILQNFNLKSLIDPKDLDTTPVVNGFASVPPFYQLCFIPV

With `Fc1cccc(-c2ccccc2NCc2nc3ccccc3o2)c1` [CMP343], the half-life in data set [1] (brain, ip, read-out: Brain half-life (converted)) is 2.1 h; in data set [1] (brain, iv, read-out: Brain half-life (converted)) it was 0.2 h; in data set [1] (heart, ip, read-out: Heart half-life (converted)), 15.3 h; in data set [1] (heart, iv, read-out: Heart half-life (converted)) it was 2.1 h; in data set [1] (plasma, ip, read-out: Plasma half-life (converted)), 4.3 h; in data set [1] (plasma, iv, read-out: Plasma half-life (converted)), 0.3 h. Also, the “Activity on mouse TRPM4” value on mouse TRPM4 was “reduced activity on mouse TRPM4 compared to human TRPM4”; on mouse TRPM4 (listed as 343) it was “significantly less effective on mouse TRPM4”. The “Current inhibition of hsTRPM4 L907A and S924A mutants versus wildtype” value in data set [2] is reported as “significantly reduced current inhibition in at least one hsTRPM4 mutant variant”. For the same compound, at human TRPM4, the “Activity on human TRPM4” value is reported as “almost completely blocked”.
For `c1csc(-c2ccccc2NCc2nc3ccccc3o2)c1` [CMP355], the IC50 at CYP 2C9 is 14.9 µM; against CYP 2C19, 6.2 µM.
Take `Cc1ccsc1-c1ccccc1NCc1nc2ccccc2o1` [CMP369]: in data set [3] (read-out: Caco-2 perm.), the Papp at 120 min, 10 μM amounted to 52 ×10⁻⁶ cm/s.
Consider `Nc1ccccc1-c1ccccc1NCc1nc2ccccc2o1` [CMP457], for which the Papp at 120 min, 10 μM in data set [3] (heading: Caco-2 perm.) came to 21 ×10⁻⁶ cm/s.
